Assay results from patent publication US8163768B2, “1,4-dihydropyridine-fused heterocycles, process for preparing the same, use and compositions containing them” (Aventis Pharma S.A.., priority 2005, dated 2012).
pIC50: −log10 of the molar value.

Tests used:
[1] = target: T1, Aurora1 (Aurora-B) (Homo sapiens, UniProt Q96GD4); assay: Aurora 1 (Aurora B) kinase radioactivity scintillation assay using nickel chelate Flash plates; assay type: biochemical; details: 10 nM Aurora-B (co expressed with C3 fragment of INCEP), 500 nM NuMA substrate, 1 μM ATP with [33P] ATP, 5 mM MgCl2, 30 minutes, 37° C.
T1 construct: Aurora-B: the full length protein (His tagged in N-terminal) has been co expressed in SF9 cells; poly-histidine (N); made in house; host or cells: SF9 cells
T1 sequence (Q96GD4 whole entry, species assumed, the tested form may be a part): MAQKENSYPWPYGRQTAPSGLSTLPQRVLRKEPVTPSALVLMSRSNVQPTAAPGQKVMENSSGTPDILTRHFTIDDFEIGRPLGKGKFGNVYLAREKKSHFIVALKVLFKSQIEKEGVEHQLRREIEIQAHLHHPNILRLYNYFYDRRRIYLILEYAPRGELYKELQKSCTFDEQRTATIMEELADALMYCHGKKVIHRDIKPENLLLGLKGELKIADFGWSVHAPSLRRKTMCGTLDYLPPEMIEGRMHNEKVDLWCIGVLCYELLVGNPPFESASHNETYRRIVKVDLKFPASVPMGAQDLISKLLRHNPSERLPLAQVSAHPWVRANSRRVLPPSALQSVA
T1 sequence (Q9NQS7 821-918 partner limits assumed, species assumed): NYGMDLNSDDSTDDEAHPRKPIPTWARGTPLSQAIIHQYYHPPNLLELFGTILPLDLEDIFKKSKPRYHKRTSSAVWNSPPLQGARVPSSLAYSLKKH
Method: Aurora 1 and 2 (Respectively. Aurora B and A)
The inhibitory effect of compounds with respect to the Aurora 1 and 2 kinases is determined with a radioactivity scintillation assay using nickel chelate.
The kinase activity of Aurora is measured by the phosphorylation of NuMA-histidine substrate in the presence of radiolabelled ATP ([^33P] ATP) using 96 well Flash plates where the nickel-chelate is linked to the surface of the microplate. The amount of ^33P incorporated to the substrate NuMA is proportional to the aurora activity.
The Flash plates used are nickel-chelate 96 well plates (Perkin Elmer, model SMP107).
The products to be evaluated are incubated in a 100 μl reaction volume per well in the presence of 10 nM of Aurora-B or Aurora-A, 500 nM of NuMA substrate in the following buffer: 50 mM of NaCl, 5 mM MgCl2, (Aurora-B) or 10 mM MgCl2 (Aurora-A) and 1 mM of DTT at 37° C.
80 μL of enzyme/substrate incubation buffer is distributed in each well, followed by 10 μL of solution of compound to be measured with various concentrations. The reaction is started by adding 1 μM of ATP (final concentration) containing 0.2 μCi of [^33P] ATP (10 μL). After 30 minutes of incubation the reaction is stopped by removal of the reaction mixture and each well is washed twice with 300 μl of buffer Tris/HCl. The radioactivity is measured in each well using a Packard Top count scintillation counter instrument.
The enzymatic activity is expressed as counts per minute obtained in 30 minutes after subtraction of the background noise (reaction medium without enzyme). The measurement is expressed as percentage of inhibition of Aurora activity versus the control. To generate IC50 values, compounds of the invention are tested at different concentration and the percentage of inhibition are plotted as function of compound concentration, IC50s are calculated using the Xlfit 4 curve fitting software.

[2] = target: T2, Aurora2 (Aurora-A) (Homo sapiens, UniProt O14965); assay: Aurora 2 (Aurora A) kinase radioactivity scintillation assay using nickel chelate Flash plates; assay type: biochemical; details: 10 nM Aurora-A, 500 nM NuMA substrate, 1 μM ATP with [33P] ATP, 10 mM MgCl2, 30 minutes, 37° C.
T2 construct: Aurora-A: the full length recombinant protein including an N-terminal poly-histidine tail has been expressed in E. coli; poly-histidine (N); made in house; host or cells: E. coli
T2 sequence (O14965 1-403): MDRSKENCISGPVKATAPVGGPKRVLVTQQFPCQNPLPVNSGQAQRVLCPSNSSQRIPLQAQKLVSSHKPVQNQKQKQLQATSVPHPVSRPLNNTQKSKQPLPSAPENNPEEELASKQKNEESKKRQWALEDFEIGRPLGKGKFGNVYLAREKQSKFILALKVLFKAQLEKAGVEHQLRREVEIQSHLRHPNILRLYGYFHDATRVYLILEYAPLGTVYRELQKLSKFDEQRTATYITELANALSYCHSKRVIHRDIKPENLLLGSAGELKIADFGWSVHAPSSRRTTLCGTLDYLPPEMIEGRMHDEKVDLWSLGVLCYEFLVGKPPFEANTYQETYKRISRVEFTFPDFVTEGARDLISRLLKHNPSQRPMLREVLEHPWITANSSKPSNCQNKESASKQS
Procedure, shortened: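 10 nM Aurora-B or Aurora-A with 500 nM NuMA-His substrate, 1 μM ATP plus [³³P]ATP, in 50 mM NaCl, 1 mM DTT and 5 mM (B) or 10 mM (A) MgCl2, 30 min at 37° C on nickel-chelate plates. Incorporated ³³P counted after washing, background-subtracted; IC50 fitted from % inhibition versus concentration.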

Row | Compound | pIC50 [1] | pIC50 [2]
1 | Cn1c(Sc2ccc(C3C4=C(CCCC4=O)Nc4n[nH]cc43)o2)nc2ccccc21 (stereo not drawn) [Example 82, 4-[5-(1-Methyl-1H-benzimidazol-2-ylsulfanyl)-furan-2-yl]-2,4,6,7,8,9-hexahydro-pyrazolo[3,4-b]quinolin-5-one; compound with trifluoro-acetic acid] | 6.82 | 5.87
2 | Cn1c(Sc2ccc(C3C4=C(CC(C)(C)CC4=O)Nc4n[nH]cc43)o2)nc2ccccc21 (stereo not drawn) [Example 84, 7,7-Dimethyl-4-[5-(1-methyl-1H-benzimidazol-2-ylsulfanyl)-furan-2-yl]-2,4,6,7,8,9-hexahydro-pyrazolo[3,4-b]quinoline-5-one] | 6.75 | 6.02
3 | O=C1CCCC2=C1C(c1ccc(Sc3nc4cc(Cl)c(Cl)cc4[nH]3)o1)c1c[nH]nc1N2 (stereo not drawn) [Example 85, 4-[5-(5,6-Dichloro-1H-benzimidazol-2-ylsulfanyl)-furan-2-yl]-2,4,6,7,8,9-hexahydro-pyrazolo[3,4-b]quinolin-5-one; compound with trifluoro-acetic acid] | 8.05 | 7.66
4 | O=C1CNCC2=C1C(c1ccc(Sc3nc4cc(Cl)c(Cl)cc4[nH]3)o1)c1c[nH]nc1N2 (stereo not drawn) [Example 86, 4-[5-(5,6-Dichloro-1H-benzoimidazol-2-ylsulfanyl)-furan-2-yl]-2,4,6,7,8,9-hexahydro-pyrazolo[3,4-b]-1,7-naphthyridin-5-one; compound with trifluoro-acetic acid] | 7.77 | 7.09
5 | CC1(C)CC(=O)C2=C(C1)Nc1n[nH]cc1C2c1ccc(Sc2nc3cc(Cl)c(Cl)cc3[nH]2)o1 (stereo not drawn) [Example 87, 4-[5-(5,6-Dichloro-1H-benzoimidazol-2-ylsulfanyl)-furan-2-yl]-7,7-dimethyl-2,4,6,7,8,9-hexahydro-pyrazolo[3,4-b]quinolin-5-one] | 8.10 | 7.66
6 | Cc1c[nH]c(Sc2ccc(C3C4=C(CC(C)(C)CC4=O)Nc4n[nH]cc43)o2)n1 (stereo not drawn) [Example 91, 7,7-Dimethyl-4-[5-(4-methyl-1H-imidazol-2-ylsulfanyl)-furan-2-yl]-2,4,6,7,8,9-hexahydro-pyrazolo[3,4-b]quinolin-5-one; compound with trifluoro-acetic acid] | 7.07 | 6.81
7 | CC1(C)CC(=O)C2=C(C1)Nc1n[nH]cc1C2c1ccc(Sc2nc3cc(C(F)(F)F)ccc3[nH]2)o1 (stereo not drawn) [Example 96, 4-[5-(5-Trifluoromethyl-1H-benzoimidazol-2-ylsulfanyl)-furan-2-yl]-7,7-dimethyl-2,4,6,7,8,9-hexahydro-pyrazolo[3,4-b]quinolin-5-one] | 7.64 | 7.24
8 | Cc1nc(Sc2ccc(C3C4=C(CCCC4=O)Nc4n[nH]cc43)o2)[nH]c1C (stereo not drawn) [Example 98, 4-[5-(4,5-Dimethyl-1H-imidazol-2-ylsulfanyl)-furan-2-yl]-2,4,6,7,8,9-hexahydro-pyrazolo[3,4-b]quinolin-5-one] | 6.64 | 6.47
9 | Cc1nc(Sc2ccc(C3C4=C(CNCC4=O)Nc4n[nH]cc43)o2)[nH]c1C (stereo not drawn) [Example 100, 4-[5-(4,5-Dimethyl-1H-imidazol-2-ylsulfanyl)-furan-2-yl]-2,4,6,7,8,9-hexahydro-pyrazolo[3,4-b]-1,7-naphthyridin-5-one; compound with trifluoro-acetic acid] | 5.27 | 5.26

The remaining molecules from weak to strong by pIC50 [1], led by results:

Row | pIC50 [1] | pIC50 [2] | Compound
10 | 5.91 | 5.01 | Cn1c(-c2ccc(Cl)cc2)cnc1Sc1ccc(C2C3=C(CNCC3=O)Nc3n[nH]cc32)o1 (stereo not drawn) [Example 94, 4-{5-[5-(4-Chloro-phenyl)-1-methyl-1H-imidazol-2-ylsulfanyl]-furan-2-yl}-2,4,6,7,8,9-hexahydro-pyrazolo[3,4-b]-1,7-naphthyridin-5-one; compound with trifluoro-acetic acid]
11 | 6.63 | 5.68 | Cn1c(-c2ccc(Cl)cc2)cnc1Sc1ccc(C2C3=C(CCCC3=O)Nc3n[nH]cc32)o1 (stereo not drawn) [Example 92, 4-{5-[5-(4-Chloro-phenyl)-1-methyl-1H-imidazol-2-ylsulfanyl]-furan-2-yl}-2,4,6,7,8,9-hexahydro-pyrazolo[3,4-b]quinolin-5-one]
12 | 6.71 | 6.17 | CC1(C)CC(=O)C2=C(C1)Nc1n[nH]cc1C2c1ccc(Sc2nc3cc(Cl)ccc3o2)o1 (stereo not drawn) [Example 90, 4-[5-(5-Chloro-benzoxazol-2-ylsulfanyl)-furan-2-yl]-7,7-dimethyl-2,4,6,7,8,9-hexahydro-pyrazolo[3,4-b]quinoline-5-one]
13 | 6.81 | 5.87 | Cn1c(-c2ccc(Cl)cc2)cnc1Sc1ccc(C2C3=C(CC(C)(C)CC3=O)Nc3n[nH]cc32)o1 (stereo not drawn) [Example 93, 4-{5-[5-(4-Chloro-phenyl)-1-methyl-1H-imidazol-2-ylsulfanyl]-furan-2-yl}-7,7-dimethyl-2,4,6,7,8,9-hexahydro-pyrazolo[3,4-b]quinolin-5-one]
14 | 6.91 | 6.87 | Cc1nc(Sc2ccc(C3C4=C(CC(C)(C)CC4=O)Nc4n[nH]cc43)o2)[nH]c1C (stereo not drawn) [Example 99, 4-[5-(4,5-Dimethyl-1H-imidazol-2-ylsulfanyl)-furan-2-yl]-7,7-dimethyl-2,4,6,7,8,9-hexahydro-pyrazolo[3,4-b]quinolin-5-one]
15 | 7.04 | 6.44 | O=C1CCCC2=C1C(c1ccc(Sc3nc4cc(Cl)ccc4o3)o1)c1c[nH]nc1N2 (stereo not drawn) [Example 88, 4-[5-(5-Chloro-benzoxazol-2-ylsulfanyl)-furan-2-yl]-2,4,6,7,8,9-hexahydro-pyrazolo[3,4-b]quinolin-5-one; compound with trifluoro-acetic acid]
16 | 7.22 | 5.77 | Cc1ccc2[nH]c(Sc3ccc(C4C5=C(CCCC5=O)Nc5[nH]ncc54)s3)nc2c1 (stereo not drawn) [Example 101, 4-[5-(5-Methyl-1H-benzimidazol-2-ylsulfanyl)-thiophen-2-yl]-1,4,6,7,8,9-hexahydro-pyrazolo[3,4-b]quinolin-5-one]
17 | 7.33 | 6.53 | O=C1CNCC2=C1C(c1ccc(Sc3nc4cc(C(F)(F)F)ccc4[nH]3)o1)c1c[nH]nc1N2 (stereo not drawn) [Example 97]
18 | 7.39 | 6.31 | COc1ccc2[nH]c(Sc3ccc(C4C5=C(CNCC5=O)Nc5n[nH]cc54)o3)nc2c1 (stereo not drawn) [Example 80, 4-[5-(5-Methoxy-1H-benzimidazol-2-ylsulfanyl)-furan-2-yl]-2,4,6,7,8,9-hexahydro-pyrazolo[3,4-b]-1,7-naphthyridin-5-one; compound with trifluoro-acetic acid]
19 | 7.51 | 6.45 | CCOC(=O)c1[nH]cc2c1NC1=C(C(=O)CCC1)C2c1ccc(Sc2nc3cc(O)ccc3[nH]2)o1 (stereo not drawn) [Example 89, 9-[5-(5-Hydroxy-1H-benzoimidazol-2-ylsulfanyl)-furan-2-yl]-8-oxo-4,5,6,7,8,9-hexahydro-2H-pyrrolo[3,4-b]quinoline-3-carboxylic acid ethyl ester]
20 | 7.96 | 7.48 | COc1ccc2[nH]c(Sc3ccc(C4C5=C(CC(C)(C)CC5=O)Nc5n[nH]cc54)o3)nc2c1 (stereo not drawn) [Example 81, 4-[5-(5-Methoxy-1H-benzimidazol-2-ylsulfanyl)-furan-2-yl]-7,7-dimethyl-2,4,6,7,8,9-hexahydro-pyrazolo[3,4-b]quinolin-5-one]
21 | 8.05 | 7.21 | O=C1CCCC2=C1C(c1ccc(Sc3nc4cc(C(F)(F)F)ccc4[nH]3)o1)c1cn[nH]c1N2 (stereo not drawn) [Example 95, 4-[5-(5-Trifluoromethyl-1H-benzimidazol-2-ylsulfanyl)-furan-2-yl]-1,4,6,7,8,9-hexahydro-pyrazolo[3,4-b]quinolin-5-one]
